From patent US20210236512A1 (ZARODEX THERAPEUTICS LIMITED, priority 2018, published 2021)

Legend:
[1] = system: total peripheral blood B-cells isolated from healthy donors; format: cell-based, human; conditions: clozapine 25-350 ng/ml, norclozapine 15-200 ng/ml, haloperidol 2-25 ng/ml; for Ability of differentiated ASCs to secrete antibody (total IgM/IgG ELISA): day 6 and day 9
Method: The experiment was performed from four independent donors.

[2] = in vivo; cited from earlier work
[3] = system: B cell subsets and T cells in spleen; experiment: Wild type mouse study: spleen immunophenotyping by flow cytometry; conditions: haloperidol 1 mg/kg
[4] = system: B cell subsets in bone marrow; experiment: Wild type mouse study: bone marrow B cell immunophenotyping by flow cytometry; conditions: haloperidol 1 mg/kg IP, 21 days

Compound	Functional or phenotypic maturation of activated B cells to an early PC state [1]	Ability of differentiated ASCs to secrete antibody (total IgM/IgG ELISA) [1]	LD50 [2]	Reduction of activated T cells (B220+TCR-b+) in spleen [3]	Impact on B cell subpopulations ([3]; comparator)	Early developing B cell subsets in bone marrow (overall B, pre-pro B, pro-B) [4]	Effect on long-lived plasma cells in the bone marrow [4]
O=C(CCCN1CCC(O)(c2ccc(Cl)cc2)CC1)c1ccc(F)cc1 [Haloperidol, haloperidol]	no consistent inhibitory effect	no consistent effect	30 mg/kg	modestly apparent	not observed	no significant effect	no effect
Clc1ccc2c(c1)N=C(N1CCNCC1)c1ccccc1N2 [norclozapine]	no consistent inhibitory effect	no consistent effect	–	–	–	–	–
